According to ChEMBL document CHEMBL1201862, “PubChem BioAssay data set” (2004):
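In this assay, cells in 96-well plates receive the compound at five concentrations for 48 hours. Endpoints are linearly interpolated between the surrounding concentrations. Here, GI50 denotes the concentration required for 50% inhibition of growth.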 Calls of active or inactive are those of the source. Cut-off read from the data, not from the text of the source: active = GI50 up to about 1.1 µM and inactive = higher.

Key:
Experiment in all cases: NCI-60 cell line screen, 48 h
PC-3 = system: PC-3
UACC-257 = system: UACC-257
Hs-578T = system: Hs-578T
RXF 393 = system: RXF 393
MCF7 = system: MCF7
KM12 = system: KM12
K562 = system: K562
IGROV-1 = system: IGROV-1
UO-31 = system: UO-31
DU-145 = system: DU-145
SF-295 = system: SF-295
NCI-H522 = system: NCI-H522
786-0 = system: 786-0
MDA-MB-435 = system: MDA-MB-435
OVCAR-3 = system: OVCAR-3
NCI-H460 = system: NCI-H460
SW-620 = system: SW-620
HCT-15 = system: HCT-15
T47D = system: T47D

Row | Compound | GI50 (PC-3) | GI50 (UACC-257) | GI50 (Hs-578T) | GI50 (RXF 393) | GI50 (MCF7) | GI50 (KM12) | GI50 (K562) | GI50 (IGROV-1) | GI50 (UO-31) | GI50 (DU-145) | GI50 (SF-295) | GI50 (NCI-H522) | GI50 (786-0) | GI50 (MDA-MB-435) | GI50 (OVCAR-3) | GI50 (NCI-H460) | GI50 (SW-620) | GI50 (HCT-15) [µM] | GI50 (T47D)
1 | O=C(CNc1ccccc1Cl)Nn1c(-c2ccccc2)nc2ccccc2c1=O | 20.7 µM (inactive) | 50.6 µM (inactive) | 25.6 µM (inactive) | 20.3 µM (inactive) | 14.8 µM (inactive) | 28.6 µM (inactive) | 23.2 µM (inactive) | 23.7 µM (inactive) | 47.1 µM (inactive) | > 100 µM (inactive) | 31.4 µM (inactive) | > 10 µM (inactive) | 19.7 µM (inactive) | 18.5 µM (inactive) | 23.1 µM (inactive) | 78.5 µM (inactive) | 19.8 µM (inactive) |  | 
2 | O=[N+]([O-])c1cccc(/C=N\NS(=O)(=O)c2ccc(Cl)cc2)c1O |  | > 100 µM (inactive) |  | 37.8 µM (inactive) |  | > 100 µM (inactive) | 60.1 µM (inactive) | 49.4 µM (inactive) | 67.3 µM (inactive) |  | > 100 µM (inactive) | 31.8 µM (inactive) | > 100 µM (inactive) |  | 65.8 µM (inactive) | 82.8 µM (inactive) | > 100 µM (inactive) | 52.5 | 
3 | O=c1[nH]nc(-c2ccccc2)n1/N=C/c1c(O)ccc2ccccc12 | 37.8 µM (inactive) | 68.5 µM (inactive) | 14.1 µM (inactive) | 23.8 µM (inactive) | 59.7 µM (inactive) | 6.75 µM (inactive) | 60 µM (inactive) | > 100 µM (inactive) | 36 µM (inactive) | 76.4 µM (inactive) | 29 µM (inactive) | 91.2 µM (inactive) | 31.3 µM (inactive) | 56.5 µM (inactive) | 17.3 µM (inactive) |  | 37.8 µM (inactive) | 42.6 | 
4 | CN1C(c2ccccc2)CC(C)(O)CC1c1ccccc1 (configuration not stated) |  | > 100 µM (inactive) |  | > 100 µM (inactive) |  | > 100 µM (inactive) | > 100 µM (inactive) | > 100 µM (inactive) | > 100 µM (inactive) |  | > 100 µM (inactive) | > 100 µM (inactive) | > 100 µM (inactive) |  | > 100 µM (inactive) | > 100 µM (inactive) | > 100 µM (inactive) | > 100 | 
5 | C/C=C1\CC2C(=O)CCC2C2c3ccccc3OC12 (configuration not stated) | > 100 µM (inactive) | > 100 µM (inactive) | > 100 µM (inactive) | > 100 µM (inactive) | > 100 µM (inactive) | > 100 µM (inactive) | > 100 µM (inactive) | > 100 µM (inactive) | > 100 µM (inactive) | 0.0617 µM (active) | > 100 µM (inactive) | > 100 µM (inactive) | > 100 µM (inactive) | > 100 µM (inactive) | > 100 µM (inactive) | > 100 µM (inactive) | > 100 µM (inactive) | > 100 | 
6 | COc1cccc(-n2nnc3c(N)nc(N)nc32)c1 | > 100 µM (inactive) | > 100 µM (inactive) |  |  | > 100 µM (inactive) | > 100 µM (inactive) | > 100 µM (inactive) | 51.6 µM (inactive) |  | > 100 µM (inactive) | > 100 µM (inactive) | > 100 µM (inactive) | > 100 µM (inactive) | > 100 µM (inactive) | > 100 µM (inactive) | 94.4 µM (inactive) | > 100 µM (inactive) | > 100 | > 100 µM (inactive)
7 | Clc1cc(Br)c2c3c(c(Br)cc(Cl)c13)C(Br)=C2Br | 26.7 µM (inactive) | > 100 µM (inactive) | 33.1 µM (inactive) |  | 34.8 µM (inactive) | 45.8 µM (inactive) | 29 µM (inactive) | 16.7 µM (inactive) | 44.6 µM (inactive) | 28.4 µM (inactive) | > 100 µM (inactive) | 17.2 µM (inactive) | 22.1 µM (inactive) | 39.4 µM (inactive) | 30.3 µM (inactive) | 40.7 µM (inactive) | 34.2 µM (inactive) | 18.6 | 
8 | CC(C)[Si](Oc1cc2c3c(ccc2c(O)c1[C@@H](C)CO[Si](C)(C)C(C)(C)C)C(C)(C)CCC3)(C(C)C)C(C)C | 74.6 µM (inactive) | 29.4 µM (inactive) | > 100 µM (inactive) | > 100 µM (inactive) | > 100 µM (inactive) | > 100 µM (inactive) | 43.7 µM (inactive) | 87.5 µM (inactive) | > 100 µM (inactive) | > 100 µM (inactive) | 92.3 µM (inactive) | 39.5 µM (inactive) | > 100 µM (inactive) | > 100 µM (inactive) | 86.1 µM (inactive) | 78 µM (inactive) | > 100 µM (inactive) | > 100 | 
9 | C1CC[C@H]2SSC3CCCC[C@H]3SSC2C1 (some centres not stated) | > 100 µM (inactive) | > 100 µM (inactive) |  |  | > 100 µM (inactive) | > 100 µM (inactive) | > 100 µM (inactive) | > 100 µM (inactive) | > 100 µM (inactive) | > 100 µM (inactive) | > 100 µM (inactive) | > 100 µM (inactive) | > 100 µM (inactive) | > 100 µM (inactive) | > 100 µM (inactive) | > 100 µM (inactive) | > 100 µM (inactive) | > 100 | > 100 µM (inactive)
10 | CCOC(=O)Cc1csc2[n+]1C(=O)/C(=C\c1cccc(Cl)c1Cl)S2 | 13.3 µM (inactive) | 20.1 µM (inactive) | 29.5 µM (inactive) | 16.7 µM (inactive) | 28.1 µM (inactive) | 15.4 µM (inactive) |  | 20.1 µM (inactive) | 12.7 µM (inactive) | 16.9 µM (inactive) | 15.3 µM (inactive) | 14.8 µM (inactive) | 15.8 µM (inactive) | 13.7 µM (inactive) | 7.05 µM (inactive) | 14.9 µM (inactive) | 18.6 µM (inactive) | 16.2 | 
11 | CCOCc1c(C)cc(C)c(C2C(C(=O)c3ccccc3)N3c4ccccc4C=CC3C2(C#N)C(=O)OCC)c1C (configuration not stated) | 25.8 µM (inactive) | 50.1 µM (inactive) | > 100 µM (inactive) | 46 µM (inactive) | 24.8 µM (inactive) | 16.8 µM (inactive) | > 100 µM (inactive) | 10.6 µM (inactive) | 49.1 µM (inactive) | 37.8 µM (inactive) | 53 µM (inactive) |  | 45 µM (inactive) | 38.7 µM (inactive) | 17.4 µM (inactive) | 27.9 µM (inactive) | 67.3 µM (inactive) | 44.2 | 
12 | CCCCOC(=O)C(=O)C(CC(CC)C(=O)c1ccccc1)C(=O)C=C(C)C (configuration not stated) | > 100 µM (inactive) | > 100 µM (inactive) | > 100 µM (inactive) | > 100 µM (inactive) | > 100 µM (inactive) | > 100 µM (inactive) |  | > 100 µM (inactive) | > 100 µM (inactive) | > 100 µM (inactive) | > 100 µM (inactive) | > 100 µM (inactive) | > 100 µM (inactive) | > 100 µM (inactive) | > 100 µM (inactive) | > 100 µM (inactive) | > 100 µM (inactive) | > 100 | 
13 | O=c1[nH]n(Cc2ccccn2)c2ccc([N+](=O)[O-])cc12 | > 100 µM (inactive) | > 100 µM (inactive) | > 100 µM (inactive) | > 100 µM (inactive) |  | > 100 µM (inactive) | > 100 µM (inactive) | > 100 µM (inactive) | > 100 µM (inactive) | > 100 µM (inactive) |  | > 100 µM (inactive) | > 100 µM (inactive) |  | > 100 µM (inactive) | > 100 µM (inactive) | > 100 µM (inactive) | > 100 | 
14 | Cc1nc2ccc(Cl)cc2c(-n2ccnc2)c1CCn1ccnc1 | 22.1 µM (inactive) | 18.8 µM (inactive) | 12.9 µM (inactive) | 14.1 µM (inactive) | 32.3 µM (inactive) |  | 23.2 µM (inactive) | 26.1 µM (inactive) | 14.5 µM (inactive) | 31.9 µM (inactive) | 34.2 µM (inactive) | 22.4 µM (inactive) | 1.69 µM (inactive) | 32.1 µM (inactive) | 32.1 µM (inactive) | 23.2 µM (inactive) | 39.4 µM (inactive) | 22.7 | 
15 | COc1ccc(-n2/c(=N/C(=S)N(C)C)ss/c2=N\C(=S)N(C)C)cc1 |  | > 100 µM (inactive) |  | 29.6 µM (inactive) |  | 95.7 µM (inactive) | 11.6 µM (inactive) | 14.2 µM (inactive) | > 100 µM (inactive) |  | 68.4 µM (inactive) | 2.54 µM (inactive) | 32.7 µM (inactive) |  | 19.8 µM (inactive) | 2.98 µM (inactive) | > 100 µM (inactive) | > 100 | 
16 | COc1c(C)c(C/C=C(\C)CC/C=C(\C)CC/C=C(\C)CCC=C(C)C)c(OC)c(OC)c1OC | > 100 µM (inactive) | > 100 µM (inactive) | > 100 µM (inactive) | > 100 µM (inactive) | > 100 µM (inactive) | > 100 µM (inactive) | > 100 µM (inactive) | > 100 µM (inactive) | > 100 µM (inactive) | > 100 µM (inactive) | > 100 µM (inactive) | > 100 µM (inactive) | > 100 µM (inactive) | > 100 µM (inactive) | > 100 µM (inactive) | > 100 µM (inactive) | > 100 µM (inactive) | > 100 | 
17 | Cc1ccc(S(=O)(=O)NC(=O)NCCc2c[nH]cn2)cc1 | > 100 µM (inactive) |  | > 100 µM (inactive) | > 100 µM (inactive) | > 100 µM (inactive) | > 100 µM (inactive) | > 100 µM (inactive) | > 100 µM (inactive) | > 100 µM (inactive) | > 100 µM (inactive) | > 100 µM (inactive) | > 100 µM (inactive) | > 100 µM (inactive) | > 100 µM (inactive) | > 100 µM (inactive) | > 100 µM (inactive) | > 100 µM (inactive) | > 100 | 
